Source: US12336991B2, “Factor XIIA inhibitors” (UNIVERSITY OF LEEDS, priority 2018, dated 2025)

How the values were obtained:
Assay type in all cases: biochemical
[1] = target: T1, thrombin (Homo sapiens, UniProt P00734); assay: Determination of selectivity: thrombin inhibition, chromogenic substrate GPR assay; conditions: fold selectivity for FXIIa over thrombin
T1 construct: FXa (5 nM) and thrombin (5 nM)
Outline: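 Thrombin (5 nM) preincubated with compound 10 min at 37 °C in 50 mM Tris, 137 mM NaCl, pH 7.4, 5% DMSO, then GPR substrate ([…]) added. Absorbance at 405 nm read kinetically for 3 h; IC50 from initial rates, converted to Ki via Ki=IC50/(1+[S]/Km).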

[2] = target: T2, FXIIa (Homo sapiens, UniProt P00748); assay: Determination of Factor XIIa inhibition, chromogenic substrate S-2302 assay; conditions: human FXIIa alpha
T2 sequence (P00748 373-615 limits assumed): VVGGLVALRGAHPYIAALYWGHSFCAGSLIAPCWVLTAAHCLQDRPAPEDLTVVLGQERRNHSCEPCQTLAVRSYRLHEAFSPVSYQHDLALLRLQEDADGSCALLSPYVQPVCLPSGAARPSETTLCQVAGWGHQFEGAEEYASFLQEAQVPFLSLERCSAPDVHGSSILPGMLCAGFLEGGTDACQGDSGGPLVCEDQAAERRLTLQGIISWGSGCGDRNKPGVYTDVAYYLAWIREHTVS
T2 sequence (P00748 20-372 partner limits assumed): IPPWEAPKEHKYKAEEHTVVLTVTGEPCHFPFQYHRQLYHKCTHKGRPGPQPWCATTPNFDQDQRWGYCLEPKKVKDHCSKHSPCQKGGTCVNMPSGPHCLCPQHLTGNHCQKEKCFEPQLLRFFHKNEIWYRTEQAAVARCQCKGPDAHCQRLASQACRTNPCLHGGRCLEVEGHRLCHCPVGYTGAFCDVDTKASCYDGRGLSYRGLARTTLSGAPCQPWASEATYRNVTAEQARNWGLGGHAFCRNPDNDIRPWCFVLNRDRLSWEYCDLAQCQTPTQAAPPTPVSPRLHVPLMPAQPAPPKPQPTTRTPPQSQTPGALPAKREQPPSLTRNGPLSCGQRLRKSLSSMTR
Outline: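 FXIIa (10 nM) preincubated with compound 10 min at 37° C. in 50 mM Tris, 137 mM NaCl pH 7.4, 5% DMSO, top concentration 500 μM, then S-2302 added ([…]). Absorbance at 405 nm read kinetically for 3 h; IC50 from initial rates, converted to Ki by Cheng-Prusoff.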

[3] = target: FXa (Homo sapiens, UniProt P00742); assay: Determination of selectivity: FXa inhibition, chromogenic substrate S2765 assay; conditions: fold selectivity for FXIIa over FXa
Sequence of FXa (P00742 235-488 limits assumed): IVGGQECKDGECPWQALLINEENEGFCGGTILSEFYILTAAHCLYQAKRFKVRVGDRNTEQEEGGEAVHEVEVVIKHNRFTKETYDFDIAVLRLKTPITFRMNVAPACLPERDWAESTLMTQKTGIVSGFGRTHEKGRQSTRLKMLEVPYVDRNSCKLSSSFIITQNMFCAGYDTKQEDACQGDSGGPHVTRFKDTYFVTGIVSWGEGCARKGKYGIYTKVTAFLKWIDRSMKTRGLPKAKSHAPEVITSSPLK
Sequence of FXa (P00742 41-179 partner limits assumed): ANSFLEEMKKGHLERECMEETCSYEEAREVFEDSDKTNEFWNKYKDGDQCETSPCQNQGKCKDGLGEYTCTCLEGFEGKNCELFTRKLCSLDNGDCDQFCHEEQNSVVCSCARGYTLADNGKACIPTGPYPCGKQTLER
Outline: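 Human FXa (5 nM) preincubated with compound (top 500 μM, 5% DMSO) 10 min at 37 °C in 50 mM Tris, 137 mM NaCl pH 7.4, then S2765 ([…]) added; A405 kinetics over 3 h at 37 °C. IC50 from initial rates, converted to Ki via Cheng-Prusoff.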

| Structure (SMILES) | Thrombin (human)/FXIIa alpha (human) [1] | Ki [2] [nM] | FXa (human)/FXIIa alpha (human) [3] |
| --- | --- | --- | --- |
| Cn1nnc2cc(CNC(=O)[C@@H]3C[C@@H](Cc4ccc(Cl)cc4Cl)CN3C(=O)[C@H]3C[C@@H](c4ccccc4)CN3)ccc21 [Example M05373] | ++ (fold selectivity value of 10 to 100) | 200 to 2000 | ∘∘ |
| Cn1nnc2cc(CNC(=O)[C@@H]3C[C@@H](Cc4cccc(Br)c4)CN3C(=O)[C@H](N)CCC(=O)N3CCCC3)ccc21 [Example M05317] | +++ (fold selectivity values greater than 100) | < 200 | ∘∘∘ |
| COc1ccc(C[C@@H]2C[C@@H](C(=O)NCc3cc4cnccc4[nH]3)N(C(=O)[C@H](N)CCC(=O)N3CCCC3)C2)cc1 [Example M00957] | +++ (fold selectivity values greater than 100) | < 200 | ∘∘∘ |
| COc1ccc(C[C@@H]2C[C@@H](C(=O)NCc3ccc4c(c3)c(C)nn4C)N(C(=O)[C@H](N)CCC(=O)N3CCCC3)C2)cc1 [Example M05447] | +++ (fold selectivity values greater than 100) | 200 to 2000 | ∘∘∘ |
| COc1ccc(C[C@@H]2C[C@@H](C(=O)NCc3ccc4c(c3)nnn4C)N(C(=O)[C@H]3C[C@@H](C(=O)N4CCCC4)CCN3)C2)cc1 [Example M05490] | +++ (fold selectivity values greater than 100) | < 200 | ∘∘∘ |
| Cc1cccc(C[C@@H]2C[C@@H](C(=O)NCc3ccc4c(c3)nnn4C)N(C(=O)[C@H]3C[C@@H](c4ccccc4)CN3)C2)c1 [Example M05359] | ++ (fold selectivity value of 10 to 100) | 200 to 2000 | ∘∘ |
| COc1ccc(C[C@@H]2C[C@@H](C(=O)NCc3ccc4c(c3)nnn4C)N(C(=O)[C@H]3C[C@@H](c4ncccn4)CN3)C2)cc1 [Example M05387] | +++ (fold selectivity values greater than 100) | 200 to 2000 | ∘∘∘ |
| CN(C)[C@H](CCC(=O)N1CCCC1)C(=O)N1C[C@H](Cc2cccnc2)C[C@H]1C(=O)NCc1ccc2c(c1)c(Cl)nn2C [Example M05219] | +++ (fold selectivity values greater than 100) | < 200 | ∘∘∘ |
